Assay results from patent US20250059171A1 (Hoffmann-La Roche Inc., priority 2021, published 2025).
pIC50: −log10 of the molar value. Where two headings read alike, the source gives them in different places.

What was measured:
[1] = biological target: SARS-CoV-2 3CLpro (Severe acute respiratory syndrome coronavirus 2, UniProt P0DTD1); experiment: biochemical
[2] = biological target: MERS-CoV 3CLpro (Middle East respiratory syndrome-related coronavirus, UniProt K9N7C7); experiment: biochemical
[3] = biological target: SARS-CoV 3CLpro (Severe acute respiratory syndrome coronavirus, UniProt P0C6X7); experiment: biochemical
[4] = biological target: HCoV-229E 3CLpro (Human coronavirus 229E, UniProt P0C6X1); experiment: HCoV-229E 3CLpro inhibition assay (FRET); type: biochemical
Sequence of HCoV-229E 3CLpro (P0C6X1 2966-3267): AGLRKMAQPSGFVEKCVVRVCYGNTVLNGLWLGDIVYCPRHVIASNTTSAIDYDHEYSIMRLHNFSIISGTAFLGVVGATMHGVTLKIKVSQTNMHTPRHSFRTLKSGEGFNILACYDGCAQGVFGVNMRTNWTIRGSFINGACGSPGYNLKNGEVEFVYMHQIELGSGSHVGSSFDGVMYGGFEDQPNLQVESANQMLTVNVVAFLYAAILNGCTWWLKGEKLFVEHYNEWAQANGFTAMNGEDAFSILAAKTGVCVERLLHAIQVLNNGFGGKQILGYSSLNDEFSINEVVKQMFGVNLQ

Sequence of MERS-CoV 3CLpro (K9N7C7 3248-3553): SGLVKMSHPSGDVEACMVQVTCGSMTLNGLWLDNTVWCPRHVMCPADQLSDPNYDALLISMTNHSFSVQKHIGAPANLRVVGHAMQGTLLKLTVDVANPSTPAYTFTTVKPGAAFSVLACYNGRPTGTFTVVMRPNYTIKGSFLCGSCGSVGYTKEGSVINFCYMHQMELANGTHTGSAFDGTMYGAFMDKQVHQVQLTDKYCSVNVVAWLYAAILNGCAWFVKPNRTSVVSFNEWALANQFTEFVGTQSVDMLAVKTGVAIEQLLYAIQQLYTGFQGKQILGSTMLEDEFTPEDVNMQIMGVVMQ

SMILES | pIC50 [1] | pIC50 [2] | pIC50 [3] | pIC50 [4] | pIC50 ([1]; read-out: IC50 in SARS-CoV-2 3CLpro assay)
CCC(C)(C)[C@H](NC(=O)C(F)F)C(=O)N1C[C@H]2[C@@H]([C@H]1C(=O)NN(C[C@@H]1CCNC1=O)C(=O)[C@@H](F)Cl)C2(C)C [Example 148, N-[(1S)-1-[(1R,2S,5S)-2-[[[(2S)-2-chloro-2-fluoro-acetyl]-[[(3S)-2-oxopyrrolidin-3-yl]methyl]amino]carbamoyl]-6,6-dimethyl-3-azabicyclo[3.1.0]hexane-3-carbonyl]-2,2-dimethyl-butyl]-2,2-difluoro-acetamide] | 7.89 | 6.89 | 7.70 | 7.52 | 
CCC(C)(C)[C@H](NC(=O)C1(F)CC1)C(=O)N1C[C@@H]2CCC[C@@H]2[C@H]1C(=O)NN(C[C@@H]1CCNC1=O)C(=O)[C@H](F)Cl [Example 149, N-[(1S)-1-[(3S,3aS,6aR)-3-[[[(2R)-2-chloro-2-fluoro-acetyl]-[[(3S)-2-oxopyrrolidin-3-yl]methyl]amino]carbamoyl]-3,3a,4,5,6,6a-hexahydro-1H-cyclopenta[c]pyrrole-2-carbonyl]-2,2-dimethyl-butyl]-1-fluoro-cyclopropanecarboxamide] |  | 6.86 | 7.82 | 7.35 | 8.22
CCC(C)(C)[C@H](NC(=O)[C@@H]1CC1(F)F)C(=O)N1C[C@@H]2CCC[C@@H]2[C@H]1C(=O)NN(C[C@@H]1CCNC1=O)C(=O)[C@H](F)Cl [Example 150, (1S)—N-[(1S)-1-[(3S,3aS,6aR)-3-[[[(2R)-2-chloro-2-fluoro-acetyl]-[[(3S)-2-oxopyrrolidin-3-yl]methyl]amino]carbamoyl]-3,3a,4,5,6,6a-hexahydro-1H-cyclopenta[c]pyrrole-2-carbonyl]-2,2-dimethyl-butyl]-2,2-difluoro-cyclopropanecarboxamide] | 7.96 | 7.20 | 7.80 | 7.48 | 
CCC(C)(C)[C@H](NC(=O)C(F)F)C(=O)N1C[C@@H]2CCC[C@@H]2[C@H]1C(=O)NN(C[C@@H]1CCNC1=O)C(=O)[C@H](F)Cl [Example 151, N-[(1S)-1-[(3S,3aS,6aR)-3-[[[(2R)-2-chloro-2-fluoro-acetyl]-[[(3S)-2-oxopyrrolidin-3-yl]methyl]amino]carbamoyl]-3,3a,4,5,6,6a-hexahydro-1H-cyclopenta[c]pyrrole-2-carbonyl]-2,2-dimethyl-butyl]-2,2-difluoro-acetamide] | 7.89 | 7.17 | 7.85 | 7.51 | 
CCC(C)(C)[C@H](NC(=O)[C@@H]1CC1(F)F)C(=O)N1C[C@@H]2CCC[C@@H]2[C@H]1C(=O)NN(C[C@@H]1CCNC1=O)C(=O)[C@@H](F)Cl [Example 152, (1S)—N-[(1S)-1-[(3S,3aS,6aR)-3-[[[(2S)-2-chloro-2-fluoro-acetyl]-[[(3S)-2-oxopyrrolidin-3-yl]methyl]amino]carbamoyl]-3,3a,4,5,6,6a-hexahydro-1H-cyclopenta[c]pyrrole-2-carbonyl]-2,2-dimethyl-butyl]-2,2-difluoro-cyclopropanecarboxamide] | 7.82 | 7.00 | 7.70 | 7.55 | 
CCC(C)(C)[C@H](NC(=O)C(F)F)C(=O)N1C[C@@H]2CCC[C@@H]2[C@H]1C(=O)NN(C[C@@H]1CCNC1=O)C(=O)[C@@H](F)Cl [Example 153, N-[(1S)-1-[(3S,3aS,6aR)-3-[[[(2S)-2-chloro-2-fluoro-acetyl]-[[(3S)-2-oxopyrrolidin-3-yl]methyl]amino]carbamoyl]-3,3a,4,5,6,6a-hexahydro-1H-cyclopenta[c]pyrrole-2-carbonyl]-2,2-dimethyl-butyl]-2,2-difluoro-acetamide] | 7.92 | 6.60 | 7.82 | 7.37 | 
